Patent US11718604B2, “4-amino-6-(1,3-benzodioxole)picolinates and their use as herbicides” (Dow AgroSciences LLC, priority 2018, dated 2023)

Assays:
Assay type in all cases: in vivo
[1] = tested on: ECHCG: barnyardgrass (Echinochloa crus-galli); experiment: Post-emergent herbicidal test, barnyardgrass; conditions: post-emergence, 336 h, 14 days after application, read-out: Visual Growth Reduction (%) 14 Days After Application ECHCG; for pest or weed control at 17.5 g/ha: 17.5 g ai/ha; for pest or weed control at 35 g/ha: 35 g ai/ha; for pest or weed control at 70 g/ha: 70 g ai/ha; for pest or weed control at 140 g/ha: 140 g ai/ha
Method in brief: (§1)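 Plants are raised in potting mix of pH 6.0 to 6.8 in a greenhouse until the first or second true leaf, then sprayed with formulated compound at 187 L/ha at several rates (½× to 1/16× of the top rate). After 14 d, damage is rated visually as percent injury against untreated plants.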

[2] = tested on: CYPES: yellow nutsedge (Cyperus esculentus); experiment: Post-emergent herbicidal test, yellow nutsedge; conditions: post-emergence, 336 h, 14 days after application, read-out: Visual Growth Reduction (%) 14 Days After Application CYPES; for pest or weed control at 17.5 g/ha: 17.5 g ai/ha; for pest or weed control at 35 g/ha: 35 g ai/ha; for pest or weed control at 70 g/ha: 70 g ai/ha; for pest or weed control at 140 g/ha: 140 g ai/ha
Method in brief: as §1

[3] = tested on: CIRAR: Canada thistle (Cirsium arvense); experiment: Post-emergent herbicidal test, Canada thistle; conditions: post-emergence, 336 h, 14 days after application, read-out: Visual Growth Reduction (%) 14 Days After Application CIRAR; for pest or weed control at 17.5 g/ha: 17.5 g ai/ha; for pest or weed control at 35 g/ha: 35 g ai/ha; for pest or weed control at 70 g/ha: 70 g ai/ha; for pest or weed control at 140 g/ha: 140 g ai/ha
Method in brief: as §1

[4] = tested on: BRSNN: oilseed rape, canola (Brassica napus); experiment: Post-emergent herbicidal test, oilseed rape; conditions: post-emergence, 336 h, 14 days after application, read-out: Visual Growth Reduction (%) 14 Days After Application BRSNN; for pest or weed control at 17.5 g/ha: 17.5 g ai/ha; for pest or weed control at 35 g/ha: 35 g ai/ha; for pest or weed control at 70 g/ha: 70 g ai/ha; for pest or weed control at 140 g/ha: 140 g ai/ha
Method in brief: as §1

[5] = tested on: SETFA: giant foxtail (Setaria faberi); experiment: Post-emergent herbicidal test, giant foxtail; conditions: post-emergence, 336 h, 14 days after application, read-out: Visual Growth Reduction (%) 14 Days After Application SETFA; for pest or weed control at 17.5 g/ha: 17.5 g ai/ha; for pest or weed control at 35 g/ha: 35 g ai/ha; for pest or weed control at 70 g/ha: 70 g ai/ha; for pest or weed control at 140 g/ha: 140 g ai/ha
Method in brief: as §1

[6] = tested on: VIOTR: wild violet (Viola tricolor); experiment: Post-emergent herbicidal test, wild violet; conditions: post-emergence, 336 h, 14 days after application, read-out: Visual Growth Reduction (%) 14 Days After Application VIOTR; for pest or weed control at 17.5 g/ha: 17.5 g ai/ha; for pest or weed control at 35 g/ha: 35 g ai/ha; for pest or weed control at 70 g/ha: 70 g ai/ha; for pest or weed control at 140 g/ha: 140 g ai/ha
Method in brief: as §1

[7] = tested on: ABUTH: velvetleaf (Abutilon theophrasti); experiment: Post-emergent herbicidal test, velvetleaf; conditions: post-emergence, 336 h, 14 days after application, read-out: Visual Growth Reduction (%) 14 Days After Application ABUTH; for pest or weed control at 17.5 g/ha: 17.5 g ai/ha; for pest or weed control at 35 g/ha: 35 g ai/ha; for pest or weed control at 70 g/ha: 70 g ai/ha; for pest or weed control at 140 g/ha: 140 g ai/ha
Method in brief: as §1

[8] = tested on: EPHHL: wild poinsettia (Euphorbia heterophylla); experiment: Post-emergent herbicidal test, wild poinsettia; conditions: post-emergence, 336 h, 14 days after application, read-out: Visual Growth Reduction (%) 14 Days After Application EPHHL; for pest or weed control at 17.5 g/ha: 17.5 g ai/ha; for pest or weed control at 35 g/ha: 35 g ai/ha; for pest or weed control at 70 g/ha: 70 g ai/ha; for pest or weed control at 140 g/ha: 140 g ai/ha
Method in brief: as §1

[9] = tested on: DIGSA: large crabgrass (Digitaria sanguinalis); experiment: Post-emergent herbicidal test, large crabgrass; conditions: post-emergence, 336 h, 14 days after application, read-out: Visual Growth Reduction (%) 14 Days After Application DIGSA; for pest or weed control at 17.5 g/ha: 17.5 g ai/ha; for pest or weed control at 35 g/ha: 35 g ai/ha; for pest or weed control at 70 g/ha: 70 g ai/ha; for pest or weed control at 140 g/ha: 140 g ai/ha
Method in brief: as §1

[10] = tested on: IPOHE: ivyleaf morningglory (Ipomoea hederacea); experiment: Post-emergent herbicidal test, ivyleaf morningglory; conditions: post-emergence, 336 h, 14 days after application, read-out: Visual Growth Reduction (%) 14 Days After Application IPOHE; for pest or weed control at 17.5 g/ha: 17.5 g ai/ha; for pest or weed control at 35 g/ha: 35 g ai/ha; for pest or weed control at 70 g/ha: 70 g ai/ha; for pest or weed control at 140 g/ha: 140 g ai/ha
Method in brief: as §1

[11] = tested on: SORVU: shattercane (Sorghum bicolor); experiment: Post-emergent herbicidal test, shattercane; conditions: post-emergence, 336 h, 14 days after application, read-out: Visual Growth Reduction (%) 14 Days After Application SORVU; for pest or weed control at 17.5 g/ha: 17.5 g ai/ha; for pest or weed control at 35 g/ha: 35 g ai/ha; for pest or weed control at 70 g/ha: 70 g ai/ha; for pest or weed control at 140 g/ha: 140 g ai/ha
Method in brief: as §1

Nc1c(F)c(-c2ccc(Br)c3c2OC(F)(F)O3)nc(C(=O)O)c1Cl [Compound 11]
pest or weed control at 17.5 g/ha [1]: 0%
pest or weed control at 35 g/ha [1]: 0%
pest or weed control at 70 g/ha [1]: 0%
pest or weed control at 140 g/ha [1]: 0%
pest or weed control at 17.5 g/ha [2]: 0%
pest or weed control at 35 g/ha [2]: 0%
pest or weed control at 70 g/ha [2]: 0%
pest or weed control at 140 g/ha [2]: 0%
pest or weed control at 17.5 g/ha [3]: 80%
pest or weed control at 35 g/ha [3]: 85%
pest or weed control at 70 g/ha [3]: 90%
pest or weed control at 140 g/ha [3]: 90%
pest or weed control at 17.5 g/ha [4]: 90%
pest or weed control at 35 g/ha [4]: 90%
pest or weed control at 70 g/ha [4]: 90%
pest or weed control at 140 g/ha [4]: 90%
pest or weed control at 17.5 g/ha [5]: 0%
pest or weed control at 35 g/ha [5]: 0%
pest or weed control at 70 g/ha [5]: 0%
pest or weed control at 140 g/ha [5]: 0%
pest or weed control at 17.5 g/ha [6]: 0%
pest or weed control at 35 g/ha [6]: 0%
pest or weed control at 70 g/ha [6]: 0%
pest or weed control at 140 g/ha [6]: 20%
pest or weed control at 17.5 g/ha [7]: 50%
pest or weed control at 35 g/ha [7]: 70%
pest or weed control at 70 g/ha [7]: 80%
pest or weed control at 140 g/ha [7]: 85%
pest or weed control at 17.5 g/ha [8]: 0%
pest or weed control at 35 g/ha [8]: 0%
pest or weed control at 70 g/ha [8]: 0%
pest or weed control at 140 g/ha [8]: 0%
pest or weed control at 17.5 g/ha [9]: 0%
pest or weed control at 35 g/ha [9]: 0%
pest or weed control at 70 g/ha [9]: 0%
pest or weed control at 140 g/ha [9]: 0%
pest or weed control at 17.5 g/ha [10]: 0%
pest or weed control at 35 g/ha [10]: 0%
pest or weed control at 70 g/ha [10]: 0%
pest or weed control at 140 g/ha [10]: 0%
pest or weed control at 17.5 g/ha [11]: 0%
pest or weed control at 35 g/ha [11]: 0%
pest or weed control at 70 g/ha [11]: 0%
pest or weed control at 140 g/ha [11]: 10%

Nc1c(F)c(-c2cccc3c2OCO3)nc(C(=O)O)c1Cl [Compound 3]
pest or weed control at 17.5 g/ha [1]: 0%
pest or weed control at 35 g/ha [1]: 0%
pest or weed control at 70 g/ha [1]: 0%
pest or weed control at 140 g/ha [1]: 0%
pest or weed control at 17.5 g/ha [2]: 0%
pest or weed control at 35 g/ha [2]: 0%
pest or weed control at 70 g/ha [2]: 0%
pest or weed control at 140 g/ha [2]: 0%
pest or weed control at 17.5 g/ha [3]: 70%
pest or weed control at 35 g/ha [3]: 85%
pest or weed control at 70 g/ha [3]: 95%
pest or weed control at 140 g/ha [3]: 95%
pest or weed control at 17.5 g/ha [4]: 60%
pest or weed control at 35 g/ha [4]: 80%
pest or weed control at 70 g/ha [4]: 95%
pest or weed control at 140 g/ha [4]: 98%
pest or weed control at 17.5 g/ha [5]: 0%
pest or weed control at 35 g/ha [5]: 0%
pest or weed control at 70 g/ha [5]: 0%
pest or weed control at 140 g/ha [5]: 0%
pest or weed control at 17.5 g/ha [6]: 0%
pest or weed control at 35 g/ha [6]: 15%
pest or weed control at 70 g/ha [6]: 30%
pest or weed control at 140 g/ha [6]: 35%
pest or weed control at 17.5 g/ha [7]: 60%
pest or weed control at 35 g/ha [7]: 80%
pest or weed control at 70 g/ha [7]: 95%
pest or weed control at 140 g/ha [7]: 95%
pest or weed control at 17.5 g/ha [8]: 0%
pest or weed control at 35 g/ha [8]: 0%
pest or weed control at 70 g/ha [8]: 0%
pest or weed control at 140 g/ha [8]: 0%
pest or weed control at 17.5 g/ha [9]: 0%
pest or weed control at 35 g/ha [9]: 0%
pest or weed control at 70 g/ha [9]: 0%
pest or weed control at 140 g/ha [9]: 0%
pest or weed control at 17.5 g/ha [10]: 0%
pest or weed control at 35 g/ha [10]: 0%
pest or weed control at 70 g/ha [10]: 0%
pest or weed control at 140 g/ha [10]: 0%
pest or weed control at 17.5 g/ha [11]: 0%
pest or weed control at 35 g/ha [11]: 0%
pest or weed control at 70 g/ha [11]: 0%
pest or weed control at 140 g/ha [11]: 0%
